Eight compounds from patent publication US20220280661A1, “GLUCOCORTICOID RECEPTOR RADIOLIGANDS AND METHODS FOR THEIR PREPARATION AND USE” (The Regents of the University of California, priority 2019, published 2022) can be followed below.

Data set [1] has as its target T1, GR (Homo sapiens, UniProt P04150).
T1 construct: evaluated using ^3H-ligand displacement assays on cells; endogenous in cells; host or cells: DU145
T1 sequence (P04150 1-777): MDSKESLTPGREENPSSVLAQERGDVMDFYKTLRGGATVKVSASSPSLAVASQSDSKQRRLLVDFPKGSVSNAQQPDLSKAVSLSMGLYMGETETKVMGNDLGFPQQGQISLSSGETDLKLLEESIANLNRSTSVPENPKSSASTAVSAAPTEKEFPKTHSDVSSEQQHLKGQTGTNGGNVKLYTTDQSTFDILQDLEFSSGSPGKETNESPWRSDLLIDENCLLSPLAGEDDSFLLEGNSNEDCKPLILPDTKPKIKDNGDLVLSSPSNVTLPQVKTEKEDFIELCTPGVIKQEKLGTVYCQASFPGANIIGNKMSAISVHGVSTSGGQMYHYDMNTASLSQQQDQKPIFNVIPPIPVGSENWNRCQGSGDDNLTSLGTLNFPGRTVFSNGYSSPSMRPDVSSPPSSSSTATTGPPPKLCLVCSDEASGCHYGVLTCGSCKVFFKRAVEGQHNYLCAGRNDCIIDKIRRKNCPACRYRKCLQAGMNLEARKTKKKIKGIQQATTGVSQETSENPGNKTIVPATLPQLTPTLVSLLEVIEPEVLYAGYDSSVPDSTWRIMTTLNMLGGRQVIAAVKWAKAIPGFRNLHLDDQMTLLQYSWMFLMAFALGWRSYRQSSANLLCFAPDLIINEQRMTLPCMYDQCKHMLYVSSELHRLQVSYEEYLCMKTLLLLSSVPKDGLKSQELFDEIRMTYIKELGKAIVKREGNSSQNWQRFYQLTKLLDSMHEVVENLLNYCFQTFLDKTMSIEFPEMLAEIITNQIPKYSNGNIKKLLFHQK
The data set is described as follows: 3H-dexamethasone displacement assay on cells (Ki). Type of data set: binding. As for the experimental part:
Statistics. All statistical analysis was performed using PRISM v8.0 software. An unpaired, two-tailed Student's t test was used to determine statistically significant differences in the data. P<0.05 was reported as statistically significant. For the determination of Ki, the data were fit with a one site nonlinear regression model.
The racemic mixture of the phenol 27 was resolved using a chiral Lux® 5p Cellulose-1 stationary phase with an isocratic mobile phase of 30% water, 70% acetonitrile, and 0.1% trifluoroacetic acid (v v) (FIG. 8A). Several milligrams of one peak were isolated and the compound was recrystallized in hexanes.
The Ki were calculated using a one site Ki fit nonlinear regression with Prism v8.0. The data are representative of two independent assays.

Data set [2] deals with plasma protein. The data set can be described thus: Plasma protein binding, rapid equilibrium dialysis, human plasma. The data set is classed as in vitro ADME. As for the experimental part: (§1) Plasma Protein Binding Studies. The rapid equilibrium dialysis (RED) device inserts along with a Teflon base plate (Pierce, Rockford, Ill.) were used for the binding studies. The pH of the human or mouse plasma was adjusted to 7.4 prior to the experiment. DMSO stocks (1 mM) were spiked into the plasma to make a final concentration of 2 μM. The spiked plasma solutions (300 μL) were placed into the sample chamber (indicated by the red ring); and 500 μL of PBS buffer, pH 7.4, was placed into the adjacent chamber. The plate was incubated at 37° C. on an orbital shaker (250 rpm) for 4 hours.
(§2) After 4 hours, from the RED plate, aliquots (100 μL) were removed from each side of the insert (plasma and buffer) and dispensed into the 96-well plate. Subsequently, 100 μL of blank plasma was added to the buffer samples and 100 μL of blank buffer was added to all the collected plasma samples. 300 μL of quench solution (50% acetonitrile, 50% methanol, and 0.05% formic acid, warmed up at 37° C.) containing internal standards was added to each well. Plates were sealed, vortexed, and centrifuged at 4° C. for 15 minutes at 4000 rpm. The supernatant was transferred to fresh plates for LC/MS/MS analysis. The sample were analyzed on LC/MS/MS using an AB Sciex API 4000 instrument, coupled to a Shimadzu LC-20AD LC Pump system. Analytical samples were separated using a Waters Atlantis T3 dC18 reverse phase HPLC column (20 mm×2.1 mm) at a flow rate of 0.5 mL/min. The mobile phase consisted of 0.1% formic acid in water (solvent A) and 0.1% formic acid in acetonitrile (solvent B).
(§3) The percentage of test compound bound to protein was calculated by the following equations:
(§4) % Free=(Concentration in buffer chamber/Concentration in plasma chamber)×100%

Assay in data set [3]: as above
Particulars: human, plasma, pH 7.4, human plasma. The data set is classed as in vitro ADME. As for the experimental part: as §1, §2, §3, §4

Data set [4] concerns plasma protein. The data set can be described thus: Plasma protein binding, rapid equilibrium dialysis, mouse plasma. Type of data set: in vitro ADME. Here is the method: as §1, §2, §3, §4
Assay in data set [5]: as above
The data set is classed as in vitro ADME. The following applies: mouse, plasma, pH 7.4, mouse plasma. Here is the method: as §1, §2, §3, §4

The target in data set [6] is T2, GR (Mus musculus, UniProt P06537).
T2 construct: from tissue; host or cells: tissues of C57BL6/J mice (intact or adrenalectomized), in vivo
T2 sequence (P06537 1-792): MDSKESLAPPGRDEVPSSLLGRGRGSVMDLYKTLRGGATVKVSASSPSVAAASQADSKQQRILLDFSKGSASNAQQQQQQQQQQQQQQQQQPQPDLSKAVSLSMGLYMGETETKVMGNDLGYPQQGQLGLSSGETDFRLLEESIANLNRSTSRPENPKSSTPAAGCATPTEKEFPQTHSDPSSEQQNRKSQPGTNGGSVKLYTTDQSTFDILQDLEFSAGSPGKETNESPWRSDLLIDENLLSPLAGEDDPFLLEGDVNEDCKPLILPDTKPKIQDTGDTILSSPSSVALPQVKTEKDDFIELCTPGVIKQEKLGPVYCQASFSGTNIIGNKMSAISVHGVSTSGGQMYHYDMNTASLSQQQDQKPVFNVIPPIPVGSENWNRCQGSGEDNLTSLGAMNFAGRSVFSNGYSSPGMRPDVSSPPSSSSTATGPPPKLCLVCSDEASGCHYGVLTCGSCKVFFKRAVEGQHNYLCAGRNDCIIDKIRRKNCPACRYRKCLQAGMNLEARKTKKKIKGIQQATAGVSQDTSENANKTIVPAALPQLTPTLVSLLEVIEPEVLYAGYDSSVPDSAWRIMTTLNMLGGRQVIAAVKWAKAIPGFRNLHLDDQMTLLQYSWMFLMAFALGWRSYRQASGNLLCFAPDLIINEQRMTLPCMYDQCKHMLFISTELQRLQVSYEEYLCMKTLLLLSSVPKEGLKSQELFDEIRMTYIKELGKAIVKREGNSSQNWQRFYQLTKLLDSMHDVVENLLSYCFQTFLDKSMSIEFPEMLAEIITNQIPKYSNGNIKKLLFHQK
The data set can be described thus: 11C radiotracer biodistribution with dexamethasone or Dex-CD blocking. The following applies: for radiotracer uptake, Adrenal / radiotracer uptake, Blood / radiotracer uptake, Bone / radiotracer uptake, Brain / radiotracer uptake, Brown Fat / radiotracer uptake, Heart / radiotracer uptake, Kidney / radiotracer uptake, Lg. Int. / radiotracer uptake, Liver / radiotracer uptake, Lung / radiotracer uptake, Muscle / radiotracer uptake, Pancreas / radiotracer uptake, Sm. Int. / radiotracer uptake, Spleen / radiotracer uptake, Stomach: 20 min after injection. The data set is classed as in vivo. As for the experimental part:
Animal Studies. All animal experiments were performed under the approval of the Institutional Animal Care and Use Committee (IACUC) at UCSF. C57BL6/J mice (4-6 weeks) were purchased from Charles River. All the mice were housed in a dedicated vivarium with free access to food and water. […] Adrenalectomized mice were purchased from Charles River and provided drinking water supplemented with NaCl (aq) per instructions until the time of the tracer biodistribution study.
Biodistribution Studies. Mice were euthanized after radiotracer (7.4-18.5 MBq in 100-150 μL) injection with CO2 (g) asphyxiation and dissected at dedicated time points post injection. The blood and tissues were collected, washed, dried, and weighed. The activity of each tissue was measured with a gamma counter. All data was decay corrected. PRISM software was used to express a percentage (% ID/g) of the injected dose per gram of tissue.
The P value indicates the result of an unpaired, two-tailed Student's t test between the respective treatment group and vehicle (n=5/group).
Table 10 summarizes biodistribution data collected 20 minutes after injection of ^11C-YJH02 among two treatment arms receiving vehicle or one intraperitoneal injection of the water-soluble dexamethasone-cyclodextrin complex at 10 mg/kg one hour prior to radiotracer administration. The P value indicates the result of an unpaired, two-tailed Student's t test between the respective treatment group and vehicle (n=5/group).

The mark [7] stands for this setting: DU145 cells, read-out: affinity (3H-dexamethasone displacement curves).
Setting [8] is: GR in cells, one site Ki fit, read-out: Ki.
The mark [9] stands for this setting: duplicate, read-out: % Bound (converted).
Setting [10] is: read-out: % Bound Average (converted).
Setting [11] is: mice given Dex-CD 10 mg/kg intraperitoneal one hour prior to radiotracer.

pKi: −log10 of the molar value. Like-named read-outs stand apart in the source and are kept apart here.

Turning to `COc1cccc2c1-c1ccc3c(c1[C@@H](Cc1ccc(F)cc1)O2)C(C)=CC(C)(C)N3` [(R)-YJH08], the pKi at GR [1] (setting [7]) was more than 8.30; on GR [1] (setting [8]), 8.42.

Consider `COc1cccc2c1-c1ccc3c(c1[C@H](Cc1ccc(F)cc1)O2)C(C)=CC(C)(C)N3` [(S)-YJH08], for which the pKi is more than 8.30 on GR [1] (setting [7]) and 8.69 on GR [1] (setting [8]).

Take `CC(C)NCC(O)COc1cccc2ccccc12` (centres unmarked) [Propranolol]: the “% Bound” value in the data set with plasma protein [2] (human plasma, 2 μM, duplicate) is given as 64.56%; in the data set on plasma protein [4] (mouse plasma, 2 μM, duplicate), 78.25%. Besides, the recovery at 4 h, 2 μM was 104% with plasma protein [2] (plasma (rapid equilibrium dialysis device), pH 7.4, human plasma) and 106% in the data set with plasma protein [4] (plasma (rapid equilibrium dialysis device), pH 7.4, mouse plasma). In addition, the fraction unbound at 4 h, 2 μM in data set [3] (setting [9]) is 0.354; in data set [3] (setting [10]), 0.354; in data set [5] (setting [9]), 0.223; in data set [5] (setting [10]), 0.22.

For `CC1=CC(C)(C)Nc2ccc3c(c21)c(=O)oc1cccc(O)c13` [YJH01, 2,5-dihydro-10-hydroxy-5-oxo-2,2,4-trimethyl-1H-[1]benzopyrano [3,4-f]quinoline], the pKi at GR [1] (setting [8]) was 8.63.

Regarding `COc1cccc2oc(=O)c3c4c(ccc3c12)NC(C)(C)C=C4C` [YJH02, 2,5-Dihydro-10-methoxy-5-oxo-2,2,4-trimethyl-1H-[1]benzopyrano [3,4-f]quinoline], the pKi at GR [1] (setting [8]) was 8.57.

Turning to `COc1cccc2c1-c1ccc3c(c1C(O)O2)C(C)=CC(C)(C)N3` (centres unmarked) [YJH03], the pKi at GR [1] (setting [8]) is 8.19.

For the compound `COc1cccc2c1-c1ccc3c(c1C(OC)O2)C(C)=CC(C)(C)N3` (centres unmarked) [YJH04, 5,10-Dimethoxy-2,5-dihydro-2,2,4-trimethyl-1H-[1]benzopyrano[3,4-f]quinolone], the pKi at GR [1] (setting [8]) was 8.21.

For `COc1cccc2oc(=O)c3c4c(ccc3c12)NC(C)(C)C=C4C` [^11C-YJH02], at GR [6] (setting [11]), the “radiotracer uptake, Adrenal” value stood at 2.37 ± 1.0 % ID/g; the “radiotracer uptake, Blood” value was found to be 1.07 ± 0.1 % ID/g; the “radiotracer uptake, Bone” value amounted to 0.76 ± 0.1 % ID/g; the “radiotracer uptake, Brain” value was determined as 0.34 ± 0.07 % ID/g. For the same compound, on GR [6] (setting [11]), the “radiotracer uptake, Brown Fat” value was found to be 3.64 ± 1.0 % ID/g; the “radiotracer uptake, Heart” value is recorded as 0.97 ± 0.1 % ID/g; the “radiotracer uptake, Kidney” value is given as 1.28 ± 0.1 % ID/g; the “radiotracer uptake, Lg. Int.” value is listed as 1.06 ± 0.3 % ID/g. Further, at GR [6] (setting [11]), the “radiotracer uptake, Liver” value is listed as 3.75 ± 0.8 % ID/g; the “radiotracer uptake, Lung” value is 1.71 ± 0.2 % ID/g; the “radiotracer uptake, Muscle” value is listed as 0.57 ± 0.1 % ID/g; the “radiotracer uptake, Pancreas” value came out at 1.76 ± 0.4 % ID/g. In addition, at GR [6] (setting [11]), the “radiotracer uptake, Sm. Int.” value is recorded as 5.80 ± 2.5 % ID/g; the “radiotracer uptake, Spleen” value stood at 0.76 ± 0.1 % ID/g; the “radiotracer uptake, Stomach” value amounted to 1.81 ± 0.3 % ID/g. Besides, at GR [6] (mice given vehicle), the “radiotracer uptake, Adrenal” value is given as 6.17 ± 0.7 % ID/g; the “radiotracer uptake, Blood” value was 1.24 ± 0.1 % ID/g; the “radiotracer uptake, Bone” value amounted to 0.70 ± 0.1 % ID/g; the “radiotracer uptake, Brain” value was 0.66 ± 0.1 % ID/g. On GR [6] (mice given vehicle), the “radiotracer uptake, Brown Fat” value is 4.65 ± 1.1 % ID/g; the “radiotracer uptake, Heart” value is given as 1.15 ± 0.2 % ID/g; the “radiotracer uptake, Kidney” value was 1.38 ± 0.4 % ID/g; the “radiotracer uptake, Lg. Int.” value is recorded as 1.63 ± 0.4 % ID/g. Moreover, at GR [6] (mice given vehicle), the “radiotracer uptake, Liver” value came out at 6.78 ± 1.1 % ID/g; the “radiotracer uptake, Lung” value is reported as 2.07 ± 0.4 % ID/g; the “radiotracer uptake, Muscle” value worked out at 0.74 ± 0.1 % ID/g; the “radiotracer uptake, Pancreas” value is 2.70 ± 0.4 % ID/g. For the same compound, at GR [6] (mice given vehicle), the “radiotracer uptake, Sm. Int.” value turned out to be 10.88 ± 2.7 % ID/g; the “radiotracer uptake, Spleen” value is recorded as 1.55 ± 0.1 % ID/g; the “radiotracer uptake, Stomach” value stood at 2.51 ± 0.4 % ID/g. In addition, at GR [6] (normal mice, 20 min post injection), the “brain uptake relative to (±)-^11C-YJH08” value is “approximately three fold lower”.
